Test results: patent publication US10752607B2, “Polymorphs of N-[(6-cyano-2-fluoro)-3-methoxyphenyl)methyl]-3-(methoxymethyl)-1-({4-[(2-oxopyridin-1-yl)methyl]phenyl}methyl)pyrazole-4-carboxamide as kallikrein inhibitors” (KALVISTA PHARMACEUTICALS LIMITED, priority 2016, dated 2020)
Values belong to the compound of their own block, whether it stands above or below them.

How the values were obtained:
[1] = Pharmacokinetic study, single oral dose in male Sprague-Dawley rats; assay type: in vivo; conditions: male Sprague-Dawley rat, 10% DMSO/10% cremophor/80% SWFI, plasma
Description: A pharmacokinetic study of N-[(6-cyano-2-fluoro-3-methoxyphenyl)methyl]-3-(methoxymethyl)-1-({4-[(2-oxopyridin-1-yl)methyl]phenyl}methyl)pyrazole-4-carboxamide was performed to assess the pharmacokinetics following a single oral dose in male Sprague-Dawley rats. Two rats were given a single po dose of 5 mL/kg of a nominal 2 mg/mL (10 mg/kg) composition of test compound in vehicle. Following dosing, blood samples were collected over a period of 24 hours. Sample times were 5, 15 and 30 minutes then 1, 2, 4, 6, 8 and […]. Following collection, blood samples were centrifuged and the plasma fraction analysed for concentration of test compound by LCMS.

Human FXIa = target: T1, Human FXIa (Homo sapiens, UniProt P03951); test: Determination of the % inhibition for FXIa (fluorogenic substrate Z-Gly-Pro-Arg-AFC); assay type: biochemical; conditions: 40 μM test compound, 25° C.
T1 construct: purchased Enzyme Research Laboratories
Description: Determination of the % Inhibition for FXIa
FXIa inhibitory activity in vitro was determined using standard published methods (see e.g. Johansen et al., Int. J. Tiss. Reac. 1986, 8, 185; Shori et al., Biochem. Pharmacol., 1992, 43, 1209; Stürzebecher et al., Biol. Chem. Hoppe-Seyler, 1992, 373, 1025). Human FXIa (Enzyme Research Laboratories) was incubated at 25° C. with the fluorogenic substrate Z-Gly-Pro-Arg-AFC and 40 μM of the test compound. Residual enzyme activity (initial rate of reaction) was determined by measuring the change in […].

[2] = contacting blood with the inhibitor; cited from earlier work
[3] = system: intrinsic pathway of coagulation; conditions: in vitro; cited from earlier work
[4] = system: LPS-induced disseminated intravascular coagulation; conditions: cited from earlier work
[5] = in vivo; cited from earlier work
rats = conditions: systemic administration; cited from earlier work

T1 sequence (P03951 388-625 limits assumed): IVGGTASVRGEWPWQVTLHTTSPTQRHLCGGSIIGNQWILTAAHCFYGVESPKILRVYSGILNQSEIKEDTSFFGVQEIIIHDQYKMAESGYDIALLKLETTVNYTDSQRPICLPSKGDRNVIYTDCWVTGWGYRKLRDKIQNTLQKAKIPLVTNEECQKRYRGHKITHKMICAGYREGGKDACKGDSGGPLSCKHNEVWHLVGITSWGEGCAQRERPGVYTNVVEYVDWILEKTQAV
T1 sequence (P03951 19-387 partner limits assumed): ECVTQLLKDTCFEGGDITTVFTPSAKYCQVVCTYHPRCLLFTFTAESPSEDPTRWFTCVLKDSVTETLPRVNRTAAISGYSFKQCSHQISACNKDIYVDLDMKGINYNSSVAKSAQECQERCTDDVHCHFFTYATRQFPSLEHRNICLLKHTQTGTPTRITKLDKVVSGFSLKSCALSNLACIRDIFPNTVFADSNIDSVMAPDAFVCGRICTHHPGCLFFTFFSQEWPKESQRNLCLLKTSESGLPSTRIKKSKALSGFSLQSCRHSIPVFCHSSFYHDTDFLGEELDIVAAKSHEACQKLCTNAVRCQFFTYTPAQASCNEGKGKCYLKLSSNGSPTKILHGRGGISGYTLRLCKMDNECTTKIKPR

Cmax ([1]; single po dose 5.5 mg/kg): 397 ng/mL | Tmax ([1]; single po dose 5.5 mg/kg): 30 min | Cmax ([1]; single po dose 7.8 mg/kg): 360 ng/mL | Tmax ([1]; single po dose 7.8 mg/kg): 60 min | inhibition at 40 µM (Human FXIa): 28%
Compound: COCc1nn(Cc2ccc(Cn3ccccc3=O)cc2)cc1C(=O)NCc1c(C#N)ccc(OC)c1F [N-[(6-cyano-2-fluoro-3-methoxyphenyl)methyl]-3-(methoxymethyl)-1-({4-[(2-oxopyridin-1-yl)methyl]phenyl}methyl)pyrazole-4-carboxamide]

Compound: Ecallantide
activated clotting time (ACT) [2]: increase in activated clotting time (ACT) | contact activated induced coagulation [3]: delay contact activated induced coagulation

Compound: Cl.NCC1CCC(C(=O)N[C@@H](Cc2ccccc2)C(=O)Nc2ccc(CC(=O)O)cc2)CC1 (stereo partly shown) [PKSI-527]
platelet count, fibrinogen level and FDP level [4]: significantly suppressed the decrease in platelet count and fibrinogen level as well as the increase in FDP level

Compound: N=C(N)c1ccc(CNC(=O)c2cnn(Cc3ccccc3)c2)cc1 [ASP-440]
oral availability [5]: poor oral availability | hematoma expansion (rats): reduced hematoma expansion
